Measurements reported in paper PMC5537346, “Characterisation and pharmacological analysis of a crustacean G protein-coupled receptor: the red pigment-concentrating hormone receptor of Daphnia pulex” (Scientific Reports, 2017).
Entries after “also recorded” stand apart in the source; their conditions may differ. Like-named read-outs stand apart in the source and are kept apart here. Where a SMILES comes first, the peptide text is derived from it. [ ]: non-standard residue; d: D form. pGlu = O=C1CC[C@@H](C(=O)O)N1

Target: T1, Dappu-RPCHR (Daphnia pulex RPCH receptor) (Daphnia pulex, UniProt A0A240FBD5)
T1 sequence (A0A240FBD5 1-451): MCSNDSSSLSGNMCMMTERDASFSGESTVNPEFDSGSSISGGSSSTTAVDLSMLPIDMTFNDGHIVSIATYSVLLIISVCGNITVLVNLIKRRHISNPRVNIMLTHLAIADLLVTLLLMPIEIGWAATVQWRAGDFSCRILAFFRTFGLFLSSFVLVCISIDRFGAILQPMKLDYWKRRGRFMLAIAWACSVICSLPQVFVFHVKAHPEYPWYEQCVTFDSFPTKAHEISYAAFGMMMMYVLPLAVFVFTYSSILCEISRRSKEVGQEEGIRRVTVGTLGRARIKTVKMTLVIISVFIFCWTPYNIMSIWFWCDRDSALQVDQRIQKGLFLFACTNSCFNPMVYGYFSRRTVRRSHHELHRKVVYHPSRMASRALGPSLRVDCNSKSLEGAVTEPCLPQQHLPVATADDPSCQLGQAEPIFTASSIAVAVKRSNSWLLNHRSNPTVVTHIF
Assay: in vitro cell-based bioluminescence (aequorin Ca2+) assay on Dappu-RPCHR expressing CHO-WTA11 cells
Conditions: for fold lower affinity / potency relative to Dappu-RPCH: from EC50 values
Method: Pharmacological analyses were performed in Chinese hamster ovary (CHO) WTA11 cells stably co-expressing the bioluminescent protein apoaequorin and the promiscuous Gα16 subunit, which couples most agonist-induced GPCRs to the phospholipase C and Ca^2+ pathway, irrespective of their natural signalling cascade.
CHO-WTA11 cells were cultured in monolayers in Dulbecco’s Modified Eagles Medium nutrient mixture F12-Ham (DMEM/F12) with L-glutamine, 15 mM HEPES, sodium bicarbonate and phenol red (Sigma-Aldrich) supplemented with 100 IU/ml penicillin and 100 µg/ml streptomycin (Gibco), 10% heat-inactivated fetal bovine serum (Gibco) and […] zeocin (Gibco). All cells were maintained in an incubator at 37 °C with a constant supply of 5% CO2.
Transfections with pcDNA3.1-Dappu-RPCHR or empty pcDNA3.1 vector were carried out in T75 flasks at 60–80% confluency. Transfection medium was prepared using the Lipofectamine LTX Kit (Invitrogen) with 2.5 ml Opti-MEM® (Gibco), 12.5 µl PlusTM Reagent and 5 µg vector construct in 5 ml polystyrene round-bottom tubes. After a 5 min incubation period at room temperature, 30 µl LTX was added to the medium. After a further incubation period of 30 min at room temperature, the medium was removed and DNA/LTX mix was added dropwise to the cells followed by 3 ml of fresh complete medium.
Following transfection, cells were incubated overnight (37 °C, 5% CO2), then 10 ml of cell medium was added followed by a second overnight incubation (37 °C, 5% CO2). Ligand-induced changes in intracellular Ca^2+ were then monitored in the cells as described below.
CHO-WTA11 cells transfected with receptor construct (or empty vector) plasmid were detached with PBS, complemented with 0.2% EDTA (pH 8.0), and rinsed off the flask with DMEM/F12 with L-glutamine and 15 mM HEPES (Sigma-Aldrich). The number of viable and nonviable cells was determined using a TC20 automated Cell Counter (BIO-RAD). The cells were pelleted for 5 minutes at 800 rpm and resuspended to a density of 5.10^6 cells/ml in sterile filtered bovine serum albumin (BSA) medium (DMEM/F12 with L-glutamine and 15 mM Hepes, supplemented with 0.1% BSA) and loaded with 5 µM Coelenterazine_h (Invitrogen) for 4 h in the dark, at room temperature, while gently shaking to reconstitute the holo-enzyme aequorin. After a 10-fold dilution, cell solution (50 µl) was delivered to each well in a 96-well plate (~25000 cells/well) and cells were exposed to potential ligands reconstituted in BSA medium and distributed across the plate. In every row, BSA medium alone was placed in one well to serve as the negative control (blank). The Ca^2+ response was recorded for 30 s on a Mithras LB 940 (Berthold Technologies). After 30 s, 0.1% Triton X-100, a non-ionic surfactant, was added to the same well to measure the total cellular Ca^2+ response. The total response (ligand + Triton X-100), which is directly related to the number of cells present in the well, was used to normalise the response. The response of each negative control was subtracted from the luminescence obtained for wells within the same row. Calculations were made using the output file from the Microwin software (Berthold Technologies) in Excel (Microsoft). Further analysis was done in GraphPad Prism 5.

[1] = Table 2, analogues of Dappu-RPCH
[2] = Table 1, AKH/RPCH and related peptides, calculated from dose-response curves

Compound	EC50 [1] [pM]	EC50 [2] [pM]	other results
CC(=O)N[C@@H](C)C(=O)N[C@H](C(=O)N[C@@H](CC(N)=O)C(=O)N[C@@H](Cc1ccccc1)C(=O)N[C@@H](CO)C(=O)N[C@H](C(=O)N[C@@H](CO)C(=O)N[C@@H](Cc1c[nH]c2ccccc12)C(N)=O)[C@@H](C)O)C(C)C [[N-Ac-Ala^1]Dappu-RPCH, [NAc-Ala]-VNFSTSWamide] (Ac-AVNFSTSW-NH2)	48700		fold lower affinity / potency relative to Dappu-RPCH: 750 fold
CC(C)[C@H](NC(=O)[C@@H]1CCC(=O)N1)C(=O)N[C@@H](CC(N)=O)C(=O)N[C@@H](Cc1ccccc1)C(=O)N[C@@H](CO)C(=O)N1CCC[C@H]1C(=O)N[C@@H](CO)C(=O)N[C@@H](Cc1c[nH]c2ccccc12)C(N)=O [Anaim-AKH, pQVNFSPSWamide] ([pGlu]VNFSPSW-NH2)		224	
CC(C)[C@H](NC(=O)[C@@H]1CCC(=O)N1)C(=O)N[C@@H](CC(N)=O)C(=O)N[C@@H](Cc1ccccc1)C(=O)N[C@@H](CO)C(=O)N[C@H](C(=O)N[C@@H](C)C(=O)N[C@@H](Cc1c[nH]c2ccccc12)C(N)=O)[C@@H](C)O [[Ala^7]Dappu-RPCH, pQVNFSTAWamide] ([pGlu]VNFSTAW-NH2)	355		
CC(C)[C@H](NC(=O)[C@@H]1CCC(=O)N1)C(=O)N[C@@H](CC(N)=O)C(=O)N[C@@H](Cc1ccccc1)C(=O)N[C@@H](CO)C(=O)N[C@H](C(=O)N[C@@H](CO)C(=O)N[C@@H](Cc1c[nH]c2ccccc12)C(=O)O)[C@@H](C)O [[Trp-OH]Dappu-RPCH, pQVNFSTSW-OH] ([pGlu]VNFSTSW-OH)	17400		fold lower affinity / potency relative to Dappu-RPCH: 270 fold
CC(C)[C@H](NC(=O)[C@@H]1CCC(=O)N1)C(=O)N[C@@H](CC(N)=O)C(=O)N[C@@H](Cc1ccccc1)C(=O)N[C@@H](CO)C(=O)N1CCC[C@H]1C(=O)N[C@@H](CO)C(=O)N[C@@H](Cc1c[nH]c2ccccc12)C(=O)NCC(=O)N[C@@H](CC(N)=O)C(N)=O [Placa-HrTH, pQVNFSPSWGNamide] ([pGlu]VNFSPSWGN-NH2)		664	EC50: 660 pM; fold lower affinity / potency relative to Dappu-RPCH: ca. 10 fold
CC(C)C[C@H](NC(=O)[C@@H]1CCC(=O)N1)C(=O)N[C@@H](CC(N)=O)C(=O)N[C@@H](Cc1ccccc1)C(=O)N[C@@H](CO)C(=O)N[C@H](C(=O)NCC(=O)N[C@@H](Cc1c[nH]c2ccccc12)C(N)=O)[C@@H](C)O [Schgr-AKH-II, pQLNFSTGWamide] ([pGlu]LNFSTGW-NH2)		237	fold lower affinity / potency relative to Dappu-RPCH: about 4 fold
CC(C)C[C@H](NC(=O)[C@@H]1CCC(=O)N1)C(=O)N[C@@H](CC(N)=O)C(=O)N[C@@H](Cc1ccccc1)C(=O)N[C@@H](CO)C(=O)N[C@@H](CO)C(=O)NCC(=O)N[C@@H](Cc1c[nH]c2ccccc12)C(N)=O [Nepci-AKH, pQLNFSSGWamide] ([pGlu]LNFSSGW-NH2)		272	fold lower affinity / potency relative to Dappu-RPCH: about 4 fold
C[C@H](NC(=O)[C@@H]1CCC(=O)N1)C(=O)N[C@@H](CC(N)=O)C(=O)N[C@@H](Cc1ccccc1)C(=O)N[C@@H](CO)C(=O)N[C@H](C(=O)N[C@@H](CO)C(=O)N[C@@H](Cc1c[nH]c2ccccc12)C(N)=O)[C@@H](C)O [[Ala^2]Dappu-RPCH, pQANFSTSWamide] ([pGlu]ANFSTSW-NH2)	17700		
CC(C)[C@H](NC(=O)[C@@H]1CCC(=O)N1)C(=O)N[C@@H](CC(N)=O)C(=O)N[C@@H](Cc1ccccc1)C(=O)N[C@@H](CO)C(=O)N[C@@H](C)C(=O)N[C@@H](CO)C(=O)N[C@@H](Cc1c[nH]c2ccccc12)C(N)=O [[Ala^6]Dappu-RPCH, pQVNFSASWamide] ([pGlu]VNFSASW-NH2)	532		
CC(C)[C@H](NC(=O)[C@@H]1CCC(=O)N1)C(=O)N[C@@H](CC(N)=O)C(=O)N[C@@H](Cc1ccccc1)C(=O)N[C@@H](CO)C(=O)N1CCC[C@H]1C(=O)N[C@@H](CC(N)=O)C(=O)N[C@@H](Cc1c[nH]c2ccccc12)C(N)=O [Peram-CAH-I, pQVNFSPNWamide] ([pGlu]VNFSPNW-NH2)		393	EC50 values (in words): more or less the same as for Anaim-AKH
pQTFQYSRGWTNamide [Dappu-Crz]			activation of Dappu-RPCHR (in words) (Locmi-ACP statement at 10 µM): did not activate the receptor; also recorded: could not activate the Dappu-RPCHR at all
CC(C)[C@H](NC(=O)[C@@H]1CCC(=O)N1)C(=O)N[C@@H](CC(N)=O)C(=O)N[C@@H](Cc1ccccc1)C(=O)N[C@@H](CO)C(=O)N[C@H](C(=O)N[C@@H](CO)C(=O)N[C@@H](C)C(N)=O)[C@@H](C)O [[Ala^8]Dappu-RPCH, pQVNFSTSAamide] ([pGlu]VNFSTSA-NH2)	131000		
CC(C)[C@H](NC(=O)[C@@H]1CCC(=O)N1)C(=O)N[C@@H](CC(N)=O)C(=O)N[C@@H](C)C(=O)N[C@@H](CO)C(=O)N[C@H](C(=O)N[C@@H](CO)C(=O)N[C@@H](Cc1c[nH]c2ccccc12)C(N)=O)[C@@H](C)O [[Ala^4]Dappu-RPCH, pQVNASTSWamide] ([pGlu]VNASTSW-NH2)	299000		
CC(C)[C@H](NC(=O)[C@@H]1CCC(=O)N1)C(=O)N[C@@H](CC(N)=O)C(=O)N[C@@H](Cc1ccccc1)C(=O)N[C@@H](CO)C(=O)N[C@H](C(=O)NCC(=O)N[C@@H](Cc1c[nH]c2ccccc12)C(N)=O)[C@@H](C)O [Grybi-AKH, pQVNFSTGWamide] ([pGlu]VNFSTGW-NH2)		66.7	EC50: 67 pM
CC(C)[C@H](NC(=O)[C@@H]1CCC(=O)N1)C(=O)N[C@@H](CC(N)=O)C(=O)N[C@@H](Cc1ccccc1)C(=O)N[C@@H](CO)C(=O)N1CCC[C@H]1C(=O)NCC(=O)N[C@@H](Cc1c[nH]c2ccccc12)C(N)=O [Manto-CC, pQVNFSPGWamide] ([pGlu]VNFSPGW-NH2)		100	EC50 values (in words): more or less the same as for Anaim-AKH
CC(C)C[C@H](NC(=O)[C@@H]1CCC(=O)N1)C(=O)N[C@@H](CC(N)=O)C(=O)N[C@@H](Cc1ccccc1)C(=O)N[C@@H](CO)C(=O)N1CCC[C@H]1C(=O)NCC(=O)N[C@@H](Cc1c[nH]c2ccccc12)C(N)=O [Panbo-RPCH, pQLNFSPGWamide] ([pGlu]LNFSPGW-NH2)		7930	
CC(C)[C@H](NC(=O)[C@@H]1CCC(=O)N1)C(=O)N[C@@H](CC(N)=O)C(=O)N[C@@H](Cc1ccccc1)C(=O)N[C@H](C(=O)N1CCC[C@H]1C(=O)N[C@@H](CO)C(=O)N[C@@H](Cc1c[nH]c2ccccc12)C(N)=O)[C@@H](C)O [Libau-AKH, pQVNFTPSWamide] ([pGlu]VNFTPSW-NH2)		179	
CC(C)[C@H](NC(=O)[C@@H]1CCC(=O)N1)C(=O)N[C@@H](CC(N)=O)C(=O)N[C@@H](Cc1ccccc1)C(=O)N[C@@H](CO)C(=O)N[C@H](C(=O)N[C@@H](CCCCN)C(=O)N[C@@H](Cc1c[nH]c2ccccc12)C(N)=O)[C@@H](C)O [Argsi-RPCH, pQVNFSTKWamide] ([pGlu]VNFSTKW-NH2)		21300	
CC(C)[C@H](NC(=O)[C@@H]1CCC(=O)N1)C(=O)N[C@@H](CC(N)=O)C(=O)N[C@@H](Cc1ccccc1)C(=O)N[C@@H](C)C(=O)N[C@H](C(=O)N[C@@H](CO)C(=O)N[C@@H](Cc1c[nH]c2ccccc12)C(N)=O)[C@@H](C)O [[Ala^5]Dappu-RPCH, pQVNFATSWamide] ([pGlu]VNFATSW-NH2)	3610		
CC(C)[C@H](NC(=O)[C@@H]1CCC(=O)N1)C(=O)N[C@@H](C)C(=O)N[C@@H](Cc1ccccc1)C(=O)N[C@@H](CO)C(=O)N[C@H](C(=O)N[C@@H](CO)C(=O)N[C@@H](Cc1c[nH]c2ccccc12)C(N)=O)[C@@H](C)O [[Ala^3]Dappu-RPCH, pQVAFSTSWamide] ([pGlu]VAFSTSW-NH2)	156000		
